# What was measured:
# Assay in all cases: Ba/F3 drug screening, Cell Titer Glo, IC50 Mut/WT
# Format in all cases: cell-based
# [1] = target: T1, EGFR L858R/L718V (Homo sapiens, UniProt P00533, L718V/L858R); conditions: PACC; L858R/L718V; Ba/F3; 72 hours
# T1 construct: host or cells: Ba/F3
# [2] = target: T2, EGFR S768dupSVD (Homo sapiens, UniProt P00533, DUP768-770); conditions: Ex20, 72 hours
# T2 construct: expressed in transfected cells; host or cells: Ba/F3 cells, retroviral pBabe-Puro vector
# [3] = target: T3, EGFR H773insNPH (Homo sapiens, UniProt P00533, INS773NPH); conditions: Ex20, 72 hours
# T3 construct: expressed in transfected cells; host or cells: Ba/F3 cells, retroviral pBabe-Puro vector
# [4] = target: T4, EGFR T725M (Homo sapiens, UniProt P00533, T725M); conditions: Classical-Like, 72 hours
# T4 construct: expressed in transfected cells; host or cells: Ba/F3 cells, retroviral pBabe-Puro vector (vector made by GeneScript from EGFR WT)
# Method: (§1) Data represent the ratio of the IC50 value for a given TKI for cells with a classical-like EGFR mutation to the IC50 value for cells with wildtype EGFR.
# (§2) Ba/F3 cell generation, drug screening, and IC50 approximations. Ba/F3 cells were obtained as a gift from Dr. Gordon Mills (MD Anderson Cancer Center), and maintained in RPMI (Sigma) containing 10% FBS, 1% penicillin/streptomycin, and 10 ng/ml recombinant mIL-3 (R&D Biosystems). To establish stable Ba/F3 cell lines, Ba/F3 cells were transduced with retroviruses containing mutant EGFR plasmids for 12-24 hours.
# (§3) After 48-72 hours of transduction, 2 μg/ml puromycin (Invitrogen) was added to Ba/F3 cell lines in complete RPMI. To select for EGFR positive cell lines, cells were stained with PE-EGFR (Biolegend) and sorted by FACS. After sorting, EGFR positive cells were maintained in RPMI containing 10% FBS, 1% penicillin/streptomycin, and 1 ng/ml EGF to support cell viability. […] Shortly, cells were plated in 384-well plates (Greiner Bio-One) at 2000-3000 cells per well in technical triplicate. Seven different concentrations of TKIs or DMSO vehicle were added to reach a final volume of 40 μL per well. After 72 hours, 11 μL of Cell Titer Glo (Promega) was added to each well. Plates were incubated for a minimum of 10 minutes, and bioluminescence was determined using a FLUOstar OPTIMA plate reader (BMG LABTECH). Raw bioluminescence values were normalized to DMSO control treated cells, and values were plotted in GraphPad Prism. […] Drug screens were performed in technical triplicate on each plate and either duplicate or triplicate biological replicates.
# [5] = target: T5, EGFR E709A (Homo sapiens, UniProt P00533, E709A); conditions: PACC; E709A; Ba/F3; 72 hours
# T5 construct: expressed in transfected cells; host or cells: Ba/F3
# [6] = target: T6, EGFR L747_K754del insATSPE (Homo sapiens, UniProt P00533, DEL747-749/K754E); conditions: T790M-like-3S, 72 hours
# T6 construct: expressed in transfected cells; host or cells: Ba/F3 cells, retroviral pBabe-Puro vector
# Method: (§4) Data represent the ratio of the IC50 value for a given TKI for cells with a T790M-like-3S EGFR mutation to the IC50 value for cells with wildtype EGFR.
# as §2
# (§5) After 48-72 hours of transduction, 2 μg/ml puromycin (Invitrogen) was added to Ba/F3 cell lines in complete RPMI. To select for EGFR positive cell lines, cells were stained with PE-EGFR (Biolegend) and sorted by FACS. After sorting, EGFR positive cells were maintained in RPMI containing 10% FBS, 1% penicillin/streptomycin, and 1 ng/ml EGF to support cell viability. Drug screening was performed as previously described^41,42. Shortly, cells were plated in 384-well plates (Greiner Bio-One) at 2000-3000 cells per well in technical triplicate. Seven different concentrations of TKIs or DMSO vehicle were added to reach a final volume of 40 μL per well. After 72 hours, 11 μL of Cell Titer Glo (Promega) was added to each well. Plates were incubated for a minimum of 10 minutes, and bioluminescence was determined using a FLUOstar OPTIMA plate reader (BMG LABTECH). Raw bioluminescence values were normalized to DMSO control treated cells, and values were plotted in GraphPad Prism. […] Drug screens were performed in technical triplicate on each plate and either duplicate or triplicate biological replicates.
# [7] = target: T7, EGFR Ex19del/T790M/L792H (Homo sapiens, UniProt P00533, DEL746-750/L792H/T790M); conditions: T790M-like-3R, 72 hours
# T7 construct: expressed in transfected cells; host or cells: Ba/F3
# [8] = target: T8, EGFR G719A/R776C (Homo sapiens, UniProt P00533, G719A/R776C); conditions: PACC; G719A/R776C; Ba/F3; 72 hours
# T8 construct: expressed in transfected cells; host or cells: Ba/F3
# [9] = target: T9, EGFR Ex19del (Homo sapiens, UniProt P00533, DEL746-750); conditions: Classical-Like, 72 hours
# T9 construct: expressed in transfected cells; host or cells: Ba/F3 cells, retroviral pBabe-Puro vector
# [10] = target: T10, EGFR Ex19del/L792H (Homo sapiens, UniProt P00533, DEL746-750/L792H); conditions: PACC; Ex19del/L792H; Ba/F3; 72 hours
# T10 construct: expressed in transfected cells; host or cells: Ba/F3
# [11] = target: T11, EGFR L858R T790M V843I (Homo sapiens, UniProt P00533, L858R/T790M/V843I); conditions: T790M-like-3S, 72 hours
# T11 construct: expressed in transfected cells; host or cells: Ba/F3
# Method: as §4, §2, §5
# [12] = target: T12, EGFR L833V (Homo sapiens, UniProt P00533, L833V); conditions: Classical-Like, 72 hours
# T12 construct: expressed in transfected cells; host or cells: Ba/F3 cells, retroviral pBabe-Puro vector
# Method: as §1, §2, §3
# [13] = target: T13, EGFR G719S (Homo sapiens, UniProt P00533, G719S); conditions: PACC; G719S; Ba/F3; 72 hours
# T13 construct: expressed in transfected cells; host or cells: Ba/F3
# Method: (§6) Data represent the ratio of the IC50 value for a given TKI for cells with a PACC EGFR mutation to the IC50 value for cells with wildtype EGFR.
# as §2, §5
# [14] = target: T14, EGFR Ex19del T790M (Homo sapiens, UniProt P00533, DEL746-750/T790M); conditions: T790M-like-3S, 72 hours
# T14 construct: expressed in transfected cells; host or cells: Ba/F3
# Method: as §4, §2, §5
# [15] = target: T15, EGFR N771dupN G724S (Homo sapiens, UniProt P00533, DUP771-771/G724S); conditions: Ex20, 72 hours
# T15 construct: expressed in transfected cells; host or cells: Ba/F3 cells, retroviral pBabe-Puro vector (vector made by GeneScript from EGFR G724S, c.2313_2314insAAC)
# [16] = target: T16, EGFR L718Q T790M (Homo sapiens, UniProt P00533, L718Q/T790M); conditions: T790M-like-3R, 72 hours
# T16 construct: expressed in transfected cells; host or cells: Ba/F3
# Method: (§7) Data represent the ratio of the IC50 value for a given TKI for cells with a T790M-like-3R EGFR mutation to the IC50 value for cells with wildtype EGFR.
# as §2
# (§8) After 48-72 hours of transduction, 2 μg/ml puromycin (Invitrogen) was added to Ba/F3 cell lines in complete RPMI. To select for EGFR positive cell lines, cells were stained with PE-EGFR (Biolegend) and sorted by FACS. After sorting, EGFR positive cells were maintained in RPMI containing 10% FBS, 1% penicillin/streptomycin, and 1 ng/ml EGF to support cell viability. […] Shortly, cells were plated in 384-well plates (Greiner Bio-One) at 2000-3000 cells per well in technical triplicate. Seven different concentrations of TKIs or DMSO vehicle were added to reach a final volume of 40 μL per well. After 72 hours, 11 μL of Cell Titer Glo (Promega) was added to each well. Plates were incubated for a minimum of 10 minutes, and bioluminescence was determined using a FLUOstar OPTIMA plate reader (BMG LABTECH). Raw bioluminescence values were normalized to DMSO control treated cells, and values were plotted in GraphPad Prism. […] Drug screens were performed in technical triplicate on each plate and either duplicate or triplicate biological replicates. […] Statistical differences between groups were determined by ANOVA as described in the figure legends.
# [17] = target: T17, EGFR E709K (Homo sapiens, UniProt P00533, E709K); conditions: PACC; E709K; Ba/F3; 72 hours
# T17 construct: expressed in transfected cells; host or cells: Ba/F3
# Method: as §6, §2, §5
# [18] = target: T18, EGFR E709A G719S (Homo sapiens, UniProt P00533, E709A/G719S); conditions: PACC; E709A G719S; Ba/F3; 72 hours
# T18 construct: expressed in transfected cells; host or cells: Ba/F3
# [19] = target: T19, EGFR L858R/C797S (Homo sapiens, UniProt P00533, C797S/L858R); conditions: PACC; L858R/C797S; Ba/F3; 72 hours
# T19 construct: expressed in transfected cells; host or cells: Ba/F3
# Method: as §6, §2, §5
# [20] = target: T20, EGFR T790M (Homo sapiens, UniProt P00533, T790M); conditions: T790M-like-3S, 72 hours
# T20 construct: expressed in transfected cells; host or cells: Ba/F3
# [21] = target: T21, EGFR S720P (Homo sapiens, UniProt P00533, S720P); conditions: Classical-Like, 72 hours
# T21 construct: expressed in transfected cells; host or cells: Ba/F3 cells, retroviral pBabe-Puro vector (vector made by GeneScript from EGFR WT)
# [22] = target: T22, EGFR S768I/V769L (Homo sapiens, UniProt P00533, S768I/V769L); conditions: PACC; S768I/V769L; Ba/F3; 72 hours
# T22 construct: host or cells: Ba/F3
# Method: as §6, §2, §5
# [23] = target: T23, EGFR G719S T790M (Homo sapiens, UniProt P00533, G719S/T790M); conditions: T790M-like-3S, 72 hours
# T23 construct: expressed in transfected cells; host or cells: Ba/F3
# Method: as §4, §2, §5
# [24] = target: T24, EGFR L858R/T790M/L718Q (Homo sapiens, UniProt P00533, L718Q/L858R/T790M); conditions: T790M-like-3R, 72 hours
# T24 construct: expressed in transfected cells; host or cells: Ba/F3
# Method: as §7, §2, §8
# [25] = target: T25, EGFR S784F (Homo sapiens, UniProt P00533, S784F); conditions: Classical-Like, 72 hours
# T25 construct: expressed in transfected cells; host or cells: Ba/F3 cells, retroviral pBabe-Puro vector (vector made by GeneScript from EGFR WT)
# Method: as §1, §2, §3
# [26] = target: T26, EGFR R776H (Homo sapiens, UniProt P00533, R776H); conditions: PACC; R776H; Ba/F3; 72 hours
# T26 construct: host or cells: Ba/F3
# [27] = target: T27, EGFR G719A L861Q (Homo sapiens, UniProt P00533, G719A/L861Q); conditions: PACC; G719A L861Q; Ba/F3; 72 hours
# T27 construct: expressed in transfected cells; host or cells: Ba/F3
# Method: as §6, §2, §5
compound,measurement,setting,value
CN(C)C/C=C/C(=O)Nc1cc2c(Nc3ccc(Cl)c(Br)c3)ncnc2cn1 [Tarlox-TKI],ratio of IC50 for cells with mutant EGFR to IC50 for cells with wildtype EGFR (Mut/WT),[1],0.3578
same,ratio of IC50 for cells with mutant EGFR to IC50 for cells with wildtype EGFR (Mut/WT),[2],0.3065
same,ratio of IC50 for cells with mutant EGFR to IC50 for cells with wildtype EGFR (Mut/WT),[3],11.56
same,ratio of IC50 for cells with mutant EGFR to IC50 for cells with wildtype EGFR (Mut/WT),[4],0.004861
same,ratio of IC50 for cells with mutant EGFR to IC50 for cells with wildtype EGFR (Mut/WT),[5],0.4803
same,ratio of IC50 for cells with mutant EGFR to IC50 for cells with wildtype EGFR (Mut/WT),[6],4.874
same,ratio of IC50 for cells with mutant EGFR to IC50 for cells with wildtype EGFR (Mut/WT),[7],74.97
same,ratio of IC50 for cells with mutant EGFR to IC50 for cells with wildtype EGFR (Mut/WT),[8],0.03266
same,ratio of IC50 for cells with mutant EGFR to IC50 for cells with wildtype EGFR (Mut/WT),[9],0.01427
same,ratio of IC50 for cells with mutant EGFR to IC50 for cells with wildtype EGFR (Mut/WT),[10],1.041
same,ratio of IC50 for cells with mutant EGFR to IC50 for cells with wildtype EGFR (Mut/WT),[11],70.97
same,ratio of IC50 for cells with mutant EGFR to IC50 for cells with wildtype EGFR (Mut/WT),[12],0.003152
same,ratio of IC50 for cells with mutant EGFR to IC50 for cells with wildtype EGFR (Mut/WT),[13],0.002634
same,ratio of IC50 for cells with mutant EGFR to IC50 for cells with wildtype EGFR (Mut/WT),[14],14.38
same,ratio of IC50 for cells with mutant EGFR to IC50 for cells with wildtype EGFR (Mut/WT),[15],0.8301
same,ratio of IC50 for cells with mutant EGFR to IC50 for cells with wildtype EGFR (Mut/WT),[16],16.46
same,ratio of IC50 for cells with mutant EGFR to IC50 for cells with wildtype EGFR (Mut/WT),[17],0.03467
same,ratio of IC50 for cells with mutant EGFR to IC50 for cells with wildtype EGFR (Mut/WT),[18],0.1143
same,ratio of IC50 for cells with mutant EGFR to IC50 for cells with wildtype EGFR (Mut/WT),[19],0.7434
same,ratio of IC50 for cells with mutant EGFR to IC50 for cells with wildtype EGFR (Mut/WT),[20],4.92
same,ratio of IC50 for cells with mutant EGFR to IC50 for cells with wildtype EGFR (Mut/WT),[21],0.02412
same,ratio of IC50 for cells with mutant EGFR to IC50 for cells with wildtype EGFR (Mut/WT),[22],0.713
same,ratio of IC50 for cells with mutant EGFR to IC50 for cells with wildtype EGFR (Mut/WT),[23],3.949
same,ratio of IC50 for cells with mutant EGFR to IC50 for cells with wildtype EGFR (Mut/WT),[24],304.5
same,ratio of IC50 for cells with mutant EGFR to IC50 for cells with wildtype EGFR (Mut/WT),[25],0.01816
same,ratio of IC50 for cells with mutant EGFR to IC50 for cells with wildtype EGFR (Mut/WT),[26],0.1639
same,ratio of IC50 for cells with mutant EGFR to IC50 for cells with wildtype EGFR (Mut/WT),[27],0.4976

# Reference: patent publication US20240384350A1, “METHODS OF TREATING CANCER WITH KINASE INHIBITORS” (BOARD OF REGENTS, THE UNIVERSITY OF TEXAS SYSTEM, priority 2021, published 2024)
